Measured values reported in PMC12661054, “The CIP2A-TOPBP1 axis facilitates mitotic DNA repair via MiDAS and MMEJ” (Nature Communications, 2025).
Each block holds one molecule with its values, some of them ahead of it.

Assays:
[1] = test system: HCT116-TOPBP1-mAID-Clover cells; assay: TOPBP1 degron assay, HCT116-TOPBP1-mAID-Clover cells; type: cell-based, human
Description: Immunofluorescence microscopy
(§1) For detection of EdU incorporation in mitosis and the analysis of recruitment of TOPBP1, CIP2A, MUS81, ERCC1, TOPBP1-mAID-Clover, eGFP tagged SLX4 and eGFP tagged Polθ in RPE1 p53^-/- FRT/TR and DLD1 BRCA2^-/-cells, respectively, cells were grown on 13 mm 1.5 thickness coverslips and treated as described. Subsequently cells were simultaneously fixed and permeabilised in PTEMF buffer (20 mM PIPES pH 6.8, 10 mM EGTA, 0.2% Triton X-100, 1 mM MgCl2 and 4% formaldehyde) for 10 minutes at room temperature. For detection of micronuclei, cells were fixed in 250 mM HEPES pH 7.5, 0.1% Triton X-100, 4% PFA in PBS for 20 minutes at 4 °C.
(§2) Quantification was carried out using FIJI (ImageJ, RRID:SCR_003070) software, CellProfiler (Broad Institute), Harmony (Revvity) or using Aivia (Leica Microsystems). Images of mitotic cells were analysed in 3D with maximum Z projections used for representative images in the manuscript to assist with visualisation.For interphase cells 2D images were analysed.

[2] = test system: RPE1 p53-/- FRT/TR cells; assay: Micronuclei formation, RPE1 p53-/- FRT/TR cells; type: cell-based, human; settings: 5 µM ART558, 18 h, with 400 nM aphidicolin, three independent experiments
Description: as §1
Coverslips were then incubated for 5 min in 1x PBS with three buffer changes followed by incubation with 0.5% Triton X-100/ PBS for 10 min at room temperature. Coverslips were then incubated for 5 minutes in 1x PBS with three buffer changes. […]
as §2

[3] = test system: DLD1 BRCA2-/- cells; assay: Proliferation (Incucyte), DLD1 BRCA2-/- cells; type: cell-based, human; settings: 5 µM ART558 + siSLX4, compared to siCIP2A; three independent experiments
Description: For proliferation analysis of DLD1 BRCA2^-/- cells after treatment with siRNA as indicated, 72 h post-transfection of the first pulse of siRNA, 1500 cells were seeded per well in a PhenoPlate 96-well optically clear tissue culture plate (Revvity, 6055302). […] The following day the media was aspirated and replaced with 200 µl of RPMI 1640 medium containing standard antibiotics, 10% FBS and 2 mM L-glutatmine.
To analyse cellular proliferation of DLD1 BRCA2^-/- or SUM149PT BRCA1^-/-cells expressing a minimal SLX4 T1260 containing fragment, 1500 cells were seeded per well in a PhenoPlate 96-well optically clear tissue culture plate (Revvity, 6055302). […] The following day the medium was aspirated and replaced with 200 µl of RPMI 1640 medium containing standard antibiotics, 10% FBS and 2 mM L-glutatmine (DLD1 BRCA2^-/- SLX4 T1260 fragment cells or empty vector control expressing) or S Ham’s F-12 medium supplemented with 5% FBS, 10 μg/mL insulin, 0.5 μg/mL hydrocortisone and penicillin/streptomycin antibiotics for SUM149PT BRCA1^-/- (SLX4 T1260 fragment or empty vector control expressing) containing 1 µg/ml doxycycline.

[4] = test system: RPE1 p53-/- cells; assay: Immunofluorescence foci, RPE1 p53-/- cells; type: cell-based, human
Description: Immunofluorescence microscopy […] For detection of micronuclei, cells were fixed in 250 mM HEPES pH 7.5, 0.1% Triton X-100, 4% PFA in PBS for 20 minutes at 4 °C. Coverslips were then incubated for 5 min in 1x PBS with three buffer changes followed by incubation with 0.5% Triton X-100/ PBS for 10 min at room temperature. Coverslips were then incubated for 5 minutes in 1x PBS with three buffer changes. For EdU detection coverslips were transferred to a humidified chamber and incubated in EdU click it reaction buffer containing Alexafluor 488 azide for 1 h at room temperature followed by three 5 min washes in 1x PBS. Coverslips were then incubated in 5% FBS/PBS for 1 h followed by overnight incubation at 4 °C with primary antibody diluted in 5% FBS/PBS. Coverslips were then washed 3 × 5 min in 1x PBS followed by 1 h incubation at room temperature in 5% FBS/PBS containing secondary antibodies. Coverslips were incubated a further three times for 5 min in 1x PBS. Coverslips were then mounted on superfrost microscopy slides using Vectashield mounting medium with DAPI (Vector laboratories, […]). […] Cells were fixed in […] for 15 min at room temperature, followed by 3 × 5 min washes in 1xPBS. Coverslips were then incubated in 0.5% Triton-X/PBS for 10 min at room temperature, followed by a further 3 × 5 min 1xPBS washes. Coverslips were then incubated in blocking buffer (2% BSA, 0.05% Tween-20) for 1 h at room temperature, followed by incubation in respective primary antibodies overnight at 4 °C. Coverslips were then washed 3x for 5 min in 1x PBS followed by incubation for 1 h at room temperature in blocking buffer containing secondary antibodies. Coverslips were then washed 3x for 5 min in 1x PBS and mounted with Vectashield PLUS antifade mounting medium with DAPI (Vector laboratories, […]). Images were acquired using a Zeiss Axio Observer Z1 MarianasTM Microscope attached with a CSU-SoRa spinning disk unit using either a Photometrics Kinetix sCMOS camera built by Intelligent Imaging Innovations (3i) or a Zeiss Axio Observer Z1 MarianasTM Microscope attached with a CSUX1 spinning disk unit and Hamamatsu Flash 4 CMOS camera built by Intelligent Imaging Innovations (3i) or using an Opera Phenix Plus high content imaging system (Revvity). In each case 405, 488 and 640 laser lines were used in addition to DAPI, GFP/FITC, iRFP/CY5 emission filters. Quantification was carried out using FIJI (ImageJ, RRID:SCR_003070) software, CellProfiler (Broad Institute), Harmony (Revvity) or using […] Microsystems). Images of mitotic cells were analysed in 3D with maximum Z projections used for representative images in the manuscript to assist with visualisation.For interphase cells 2D images were analysed.

[5] = test system: TOPBP1 BRCT 4-5; assay: Fluorescence polarisation, TOPBP1 BRCT 4-5; type: binding, human; settings: peptide 100 nM, pH 7.5
Description: (§3) In vitro fluorescence polarisation
(§4) Fluorescein-labelled peptides corresponding to amino acids 1253-1267 or 1470-1483 of SLX4 incorporating pT1260 or pT1476 respectively, were incubated at a concentration of 100 nM at room temperature with increasing concentrations of TOPBP1 WT or mutant BRCT module variants[26] in 25 mM HEPES pH 7.5, 150 mM NaCl, 1 mM EDTA, 0.25 mM TCEP, 0.002% (v/v) Tween 20 in a black 96-well polypropylene plate. Additional experiments performed with dephosphorylated peptide were achieved though incubation with Lambda phosphatase supplemented with 1 mM MnCl2 to remove the phosphorylation on the peptide. Fluorescence polarisation was measured in a CLARIOstar multimode microplate reader. Binding curves were calculated assuming a single binding site with non-specific binding component, using Graphpad Prism10.2.3 (GraphPad Prism, RRID: SCR_002798). Binding affinities are presented as calculated values alongside the 95% CI values. The presented graphs represent data plotted with the non-specific binding component subtracted.

[6] = test system: TOPBP1 BRCT 7-8; assay: Fluorescence polarisation, TOPBP1 BRCT 7-8; type: binding, human; settings: peptide 100 nM, pH 7.5
Description: as §3, §4

[7] = biological target: T1, TOPBP1 BRCT 0-1-2 WT (Homo sapiens, UniProt Q92547); assay: Fluorescence polarisation, TOPBP1 BRCT0-1-2 WT; type: binding; settings: GST-tagged TOPBP1 fragment, peptide 100 nM, pH 7.5
T1 construct: transformed with pGEX-6P-1 TOPBP1(BRCT0-2 1-290) WT and K155E, K250E and K155E/K250E mutant variants; GST (N); made in house; host or cells: E. coli BL21(DE3)
Description: E.coli BL21(DE3) cells were transformed with pGEX-6P-1 TOPBP1(BRCT0-2 1-290) WT and K155E, K250E and K155E/K250E mutant variants for protein expression. Cell pellets were resuspended in lysis buffer containing 25 mM HEPES pH 7.5, 200 mM NaCl and 0.5 mM TCEP supplemented with 50U Turbo DNase, disrupted by sonication, and the resulting lysate clarified by centrifugation at 36,000 x g for 60 min at 4 °C. The supernatant was applied to a 5 ml HiTrap GST column, then washed with buffer containing 50 mM HEPES pH 7.5, 1000 mM NaCl, 0.25 mM TCEP, before the retained protein was eluted by application of the lysis buffer supplemented with 20 mM glutathione. […]
as §3
Fluorescein-labelled peptides corresponding to amino acids 1253-1267 or 1470-1483 of SLX4 incorporating pT1260 or pT1476 respectively, were incubated at a concentration of 100 nM at room temperature with increasing concentrations of TOPBP1 WT or mutant BRCT module variants[26] in 25 mM HEPES pH 7.5, 150 mM NaCl, 1 mM EDTA, 0.25 mM TCEP, 0.002% (v/v) Tween 20 in a black 96-well polypropylene plate. […] Fluorescence polarisation was measured in a CLARIOstar multimode microplate reader. Binding curves were calculated assuming a single binding site with non-specific binding component, using Graphpad Prism10.2.3 (GraphPad Prism, RRID: SCR_002798). […]

T1 sequence (Q92547 1-290): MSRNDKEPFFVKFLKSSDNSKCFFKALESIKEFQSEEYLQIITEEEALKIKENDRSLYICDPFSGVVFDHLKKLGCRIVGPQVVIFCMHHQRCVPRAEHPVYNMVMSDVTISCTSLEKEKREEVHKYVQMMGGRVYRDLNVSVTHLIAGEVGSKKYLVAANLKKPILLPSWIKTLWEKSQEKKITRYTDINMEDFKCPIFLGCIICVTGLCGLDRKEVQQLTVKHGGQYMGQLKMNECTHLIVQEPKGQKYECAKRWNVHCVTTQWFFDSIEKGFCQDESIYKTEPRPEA

Molecule: O=C(O)Cc1c[nH]c2ccccc12 [IAA, Indole-3-acetic acid]
- MUS81 foci formation in prometaphase after acute TOPBP1 degradation ([1]; 500 µM IAA, 2 h, 40 ng/ml nocodazole, three independent experiments): near total abolishment of MUS81 foci formation in prometaphase
- anaphase abnormalities after acute TOPBP1 degradation ([1]; IAA-induced degradation of TOPBP1 in G2/M, release into mitosis): marked increase in anaphase abnormalities

Molecule: Cc1cccc(N(C)C(=O)[C@@H]2[C@H](O)CCN2c2nc(C)cc(C(F)(F)F)c2C#N)c1 [Polθi]
- micronuclei formation, WT cells [2]: increase in micronuclei formation
- proliferation, DLD1 BRCA2-/- cells depleted of SLX4 [3]: broadly similar loss of proliferative capacity compared to the single depletion of CIP2A alone

Molecule: C[C@@]1(CO)[C@H](O)CC[C@@]2(C)[C@H]1CC[C@H]1C[C@@H]3C[C@@]12CC[C@]3(O)CO [aphidicolin]
- CIP2A–γH2AX colocalising foci in mitosis ([4]; 400 nM aphidicolin 18 h, nocodazole 60 ng/ml 2 h, RPE1 p53-/- FRT/TR WT, three experiments): striking increase in CIP2A–γH2AX colocalising foci in mitosis
- RAD9 TOPBP1 colocalising foci ([4]; 400 nM aphidicolin 18 h, nocodazole 60 ng/ml 2 h, RPE1 p53-/- FRT/TR, two experiments (peer review file Fig. R1B)): increase in response to aphidicolin treatment
- WT SLX4 recruitment to prometaphase chromatin, colocalised with CIP2A ([4]; 400 nM aphidicolin 18 h, nocodazole 60 ng/ml 2 h, RPE1 p53-/- SLX4-/- + eGFP-SLX4 WT, three independent experiments): recruited to prometaphase chromatin in response to replicative stress induced by aphidicolin and colocalised with CIP2A
- colocalisation between CIP2A and FANCD2 foci on mitotic chromatin ([4]; 400 nM aphidicolin 18 h, nocodazole 60 ng/ml 2 h, RPE1 p53-/- WT, three experiments): detected colocalisation between CIP2A and FANCD2 foci on mitotic chromatin
- TOPBP1, SLX4, and MUS81 foci during interphase ([4]; RPE1 cells treated with aphidicolin): elevated formation of TOPBP1, SLX4, and MUS81 foci during interphase
- mitotic colocalisation of SLX4, MUS81 or ERCC1 with TOPBP1 in prometaphase ([4]; RPE1 cells, aphidicolin): elevated mitotic colocalisation of SLX4, MUS81 or ERCC1 with TOPBP1 in prometaphase
- colocalisation between γH2AX and MUS81 ([4]; RPE1 p53-/- cells treated with aphidicolin): The same observation was made for colocalisation between γH2AX and MUS81
- colocalising γH2AX and SLX4 foci ([4]; aphidicolin treated RPE1 p53-/- cells): significant increase in colocalising γH2AX and SLX4 foci
- MDC1 foci formation in mitosis ([4]; aphidicolin-treated RPE1 cells compared to control): elevated MDC1 foci formation in mitosis

- interaction with TOPBP1 BRCTs 0-1-2 [7]: did not bind
Molecule: ‘Flu’-GYGSPGLLDT(pT)PIRGSCT [SLX4 pT1476, Fluorescein-labelled peptide corresponding to amino acids 1470-1483 of SLX4 incorporating pT1476]
- interaction with TOPBP1 BRCTs 4-5 [5]: no interaction was detected
- interaction with TOPBP1 BRCTs 7-8 [6]: no interaction was detected
